In the supplement of paper PMC10331698:
± gives the standard deviation of the averaged measurements.

Experiments:
Experiment in all cases: level (log10 ratio to DMSO vehicle control); higher = higher biomarker level / cell amount than vehicle control
[1] = compound: NS(=O)(=O)C(F)(F)C(F)(F)C(F)(F)C(F)(F)C(F)(F)C(F)(F)F [Perfluorohexanesulfonamide]; conditions: in DMSO
Description: (§1)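 BioMAP Diversity Plus panel of 12 human primary cell co-culture systems (3C, 4H, LPS, SAg, BT, BF4T, BE3C, CASM3C, HDF3CGF, KF3CT, MyoF, Mphg). Compounds were added 1 h before stimulation and left for 24 h (MyoF 48 h; BT 72 h for soluble read-outs or 6 d for IgG). Biomarkers were read by ELISA, cytotoxicity by SRB, PBMC viability and proliferation by Alamar Blue. Each well value was divided by the mean of 8 DMSO control wells on the same plate and log10 transformed; duplicate blinded samples were tested at 4 concentrations.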

[2] = compound: O=S(=O)(Cl)C(F)(F)C(F)(F)C(F)(F)C(F)(F)C(F)(F)C(F)(F)C(F)(F)C(F)(F)F [Perfluoro-1-octanesulfonyl chloride]; conditions: in DMSO
Description: as §1

[3] = compound: FC(F)(F)C(F)(F)C(F)(F)C(F)(F)C(F)(F)C(F)(F)CC1CO1 [3-(Perfluorohexyl)-1,2-epoxypropane]; conditions: in DMSO
Description: as §1

[4] = compound: FC(F)(F)C(F)(F)C(F)(F)C(F)(F)C(F)(F)C(F)(F)C(F)(F)I [1-Iodopentadecafluoroheptane]; conditions: in DMSO
Description: as §1

[5] = compound: FC(F)(F)C(F)(F)C(F)(F)CC1CO1 [1H,1H-Heptafluorobutyl epoxide]; conditions: in DMSO
Description: as §1

Octafluoroadipamide = compound: NC(=O)C(F)(F)C(F)(F)C(F)(F)C(F)(F)C(N)=O [Octafluoroadipamide]; conditions: in DMSO
Description: as §1

[6] = compound: O=S(=O)(F)C(F)(F)C(F)(F)C(F)(F)C(F)(F)C(F)(F)C(F)(F)C(F)(F)C(F)(F)F [Perfluorooctanesulfonyl fluoride]; conditions: in DMSO
Description: as §1

[7] = compound: COC(=O)C(F)(F)C(F)(F)OC(F)(C(F)(F)F)C(F)(F)OC(F)=C(F)F [Methyl perfluoro(3-(1-ethenyloxypropan-2-yloxy)propanoate)]; conditions: in DMSO
Description: as §1

[8] = compound: NC(=O)C(F)(F)C(F)(F)C(F)(F)C(F)F; conditions: in DMSO
Description: as §1

[9] = compound: O=S(=O)(O)C(F)(F)C(F)(F)C(F)(F)C(F)(F)C(F)(F)C(F)(F)C(F)(F)C(F)(F)C(F)(F)C(F)(F)F [Sodium perfluorodecanesulfonate]; conditions: in DMSO
Description: as §1

[10] = compound: O=S(=O)(O)CCC(F)(F)C(F)(F)C(F)(F)C(F)(F)C(F)(F)C(F)(F)F [6:2 Fluorotelomer sulfonic acid]; conditions: in DMSO
Description: as §1

Heptafluorobutyl iodide = compound: FC(F)(F)C(F)(F)C(F)(F)CI [Heptafluorobutyl iodide]; conditions: in DMSO
Description: as §1

Nonafluoropentanamide = compound: NC(=O)C(F)(F)C(F)(F)C(F)(F)C(F)(F)F [Nonafluoropentanamide]; conditions: in DMSO
Description: as §1

[11] = compound: C=C(C)C(=O)OCCC(F)(F)C(F)(F)C(F)(F)C(F)(F)C(F)(F)C(F)(F)F [6:2 Fluorotelomer methacrylate]; conditions: in DMSO
Description: as §1

[12] = compound: C=CC(=O)OCC(F)(F)C(F)(F)C(F)(F)COC(=O)C=C [1H,1H,5H,5H-Perfluoro-1,5-pentanediol diacrylate]; conditions: 6700 nM; in DMSO
Description: as §1

[13] = compound: O=C(O)C(F)(F)C(F)(F)C(F)(F)C(F)(F)C(F)(F)C(F)(F)C(F)(F)C(F)(F)C(F)(F)C(F)F [11-H-Perfluoroundecanoic acid]; conditions: in DMSO
Description: as §1

[14] = compound: FC(F)(F)C(F)(F)CNCC(F)(F)C(F)(F)F [Bis(1H,1H-perfluoropropyl)amine]; conditions: in DMSO
Description: as §1

Hexafluoroamylene glycol = compound: OCC(F)(F)C(F)(F)C(F)(F)CO [Hexafluoroamylene glycol]; conditions: in DMSO
Description: as §1

[15] = compound: O=C(O)C=CC(F)(C(F)(F)F)C(F)(F)F [3-(Perfluoroisopropyl)-2-propenoic acid]; conditions: in DMSO
Description: as §1

## KF3CT:CXCL10/IP-10
[1]; 6700 nM
  level (log10): -0.012 ± 0.013
[1]; 20000 nM
  level (log10): -0.019 ± 0.014
[1]; 60000 nM
  level (log10): -0.0875 ± 0.0035
[2]; 6700 nM
  level (log10): -0.0165 ± 0.00071
[2]; 20000 nM
  level (log10): -0.0455 ± 0.00071
[2]; 60000 nM
  level (log10): -0.16 ± 0.0099
[3]; 6700 nM
  level (log10): 0.0285 ± 0.00071
[3]; 20000 nM
  level (log10): 0.0305 ± 0.0035
[3]; 60000 nM
  level (log10): 0.0295 ± 0.0021
[4]; 6700 nM
  level (log10): -0.005 ± 0.014
[4]; 20000 nM
  level (log10): -0.0085 ± 0.00071
[5]; 6700 nM
  level (log10): -0.011 ± 0.027
[5]; 20000 nM
  level (log10): -0.012 ± 0.021
[5]; 60000 nM
  level (log10): -0.0175 ± 0.016
Octafluoroadipamide; 6700 nM
  level (log10): -0.002 ± 0.0042
Octafluoroadipamide; 20000 nM
  level (log10): 0.002 ± 0.0071
Octafluoroadipamide; 60000 nM
  level (log10): 0.0005 ± 0.005
[6]; 6700 nM
  level (log10): -0.0015 ± 0.0035
[6]; 20000 nM
  level (log10): -0.0105 ± 0.00071
[6]; 60000 nM
  level (log10): -0.011 ± 0.014
[7]; 6700 nM
  level (log10): -0.0235 ± 0.0021
[7]; 20000 nM
  level (log10): -0.023 ± 0.0057
[8]; 6700 nM
  level (log10): -0.001 ± 0.0014
[8]; 20000 nM
  level (log10): -0.001 ± 0.013
[8]; 60000 nM
  level (log10): 0.0025 ± 0.0064
[9]; 1500 nM
  level (log10): 0 ± 0.023
[9]; 4400 nM
  level (log10): -0.021 ± 0.027
[9]; 13000 nM
  level (log10): -0.015 ± 0.025
[9]; 40000 nM
  level (log10): -0.0225 ± 0.0078
[10]; 6700 nM
  level (log10): -0.0105 ± 0.011
[10]; 20000 nM
  level (log10): -0.0055 ± 0.015
[10]; 60000 nM
  level (log10): -0.0135 ± 0.00071
Heptafluorobutyl iodide; 6700 nM
  level (log10): -0.009 ± 0.0014
Heptafluorobutyl iodide; 20000 nM
  level (log10): -0.0175 ± 0.0078
Heptafluorobutyl iodide; 60000 nM
  level (log10): -0.013 ± 0.0028
Nonafluoropentanamide; 6700 nM
  level (log10): -0.011 ± 0.0071
Nonafluoropentanamide; 20000 nM
  level (log10): 0.009 ± 0.0042
Nonafluoropentanamide; 60000 nM
  level (log10): -0.001 ± 0.017
[11]; 6700 nM
  level (log10): 0.019 ± 0.0057
[11]; 20000 nM
  level (log10): 0.0245 ± 0.013
[11]; 60000 nM
  level (log10): 0.031 ± 0.0014
[12]
  level (log10): -0.023 ± 0.0085
[13]; 6700 nM
  level (log10): -0.036 ± 0.0057
[13]; 20000 nM
  level (log10): -0.211 ± 0.011
[14]; 6700 nM
  level (log10): -0.0045 ± 0.0078
[14]; 20000 nM
  level (log10): -0.0025 ± 0.0035
[14]; 60000 nM
  level (log10): 0.0085 ± 0.00071
Hexafluoroamylene glycol; 6700 nM
  level (log10): 0.0015 ± 0.015
Hexafluoroamylene glycol; 20000 nM
  level (log10): -0.008 ± 0.0099
Hexafluoroamylene glycol; 60000 nM
  level (log10): -0.0035 ± 0.0092
[15]; 6700 nM
  level (log10): 0.0105 ± 0.035
[15]; 20000 nM
  level (log10): 0.0075 ± 0.032
[15]; 60000 nM
  level (log10): 0.0125 ± 0.023
